For test [1], the target named is human TYK2 (JH2domain-pseudokinase) (Homo sapiens (Human), UniProt P29597). Kind of test: TYK2 JH2 Domain Binding Assay (KINOMEscan). The gist of the method:
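Pseudokinase domain binding was measured by qPCR of tagged, bead-retained kinase after 1 h room-temperature competition, with 0.9% DMSO and compound up to 30,000 nM in 3-fold steps. Hill-equation Kd, duplicate.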

Test [2] deals with Tyk2 kinase domain (DH1) (Homo sapiens (Human), UniProt P29597). The test can be described thus: Tyk2 Radioactive Kinase Assay. Format: biochemical. To be noted: compound at 10 μM, ATP 10 μM; for inhibition at 10 µM: read-out: Tyk2 JH1% Inhibition @ 10 μM. The gist of the method: (§1)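 Compounds were tested at a single concentration of 10 μM in a radiometric kinase format against each isolated kinase domain. Activity is reported as percent inhibition at that concentration.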
Sequence of Tyk2 kinase domain (DH1) (P29597 897-1176): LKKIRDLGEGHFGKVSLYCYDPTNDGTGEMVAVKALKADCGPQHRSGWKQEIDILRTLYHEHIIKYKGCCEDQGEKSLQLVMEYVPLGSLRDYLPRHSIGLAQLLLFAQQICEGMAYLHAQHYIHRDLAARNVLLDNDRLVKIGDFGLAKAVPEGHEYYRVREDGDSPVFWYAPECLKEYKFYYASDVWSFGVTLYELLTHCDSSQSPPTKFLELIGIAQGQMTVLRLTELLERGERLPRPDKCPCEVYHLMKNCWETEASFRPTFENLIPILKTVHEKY

Test [3] has as its target JAK2 kinase domain (JH1) (Homo sapiens (Human), UniProt O60674). Kind of test: JAK2 Radioactive Kinase Assay. It is filed as biochemical. As to conditions: compound at 10 μM, ATP 10 μM; for inhibition at 10 µM: read-out: JAK2 JH1% Inhibition @ 10 μM. The gist of the method:
as §1

Sequence of human TYK2 (JH2domain-pseudokinase) (P29597 556-888): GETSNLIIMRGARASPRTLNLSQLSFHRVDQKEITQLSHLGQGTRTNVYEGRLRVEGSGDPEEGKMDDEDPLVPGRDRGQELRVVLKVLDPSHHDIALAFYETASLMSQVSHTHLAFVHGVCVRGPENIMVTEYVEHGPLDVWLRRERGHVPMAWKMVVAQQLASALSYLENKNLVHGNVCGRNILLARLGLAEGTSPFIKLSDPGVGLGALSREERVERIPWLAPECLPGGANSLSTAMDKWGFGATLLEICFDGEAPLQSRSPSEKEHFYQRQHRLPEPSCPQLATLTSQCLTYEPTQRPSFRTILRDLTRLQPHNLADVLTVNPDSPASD
Sequence of JAK2 kinase domain (JH1) (O60674 849-1124): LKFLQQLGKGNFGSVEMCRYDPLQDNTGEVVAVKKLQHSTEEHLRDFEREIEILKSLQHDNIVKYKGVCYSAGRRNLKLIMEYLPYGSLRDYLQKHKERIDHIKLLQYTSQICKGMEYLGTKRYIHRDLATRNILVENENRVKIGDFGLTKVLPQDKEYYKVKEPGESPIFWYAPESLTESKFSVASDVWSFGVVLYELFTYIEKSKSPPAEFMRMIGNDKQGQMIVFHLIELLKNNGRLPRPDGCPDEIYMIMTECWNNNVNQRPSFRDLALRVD

Take `CNc1cc(Nc2cccnc2OC2CC2)nc2c(C(=O)N[C@@H]3CC[C@H]3O)cnn12` [I-398]: the dissociation constant Kd (usually a measure of binding affinity in units of concentration) in test [1] was in the range of 0.2 to 1 nM. The inhibition at 10 µM in test [2] and in test [3] was < 50% in each case.
`CNc1cc(Nc2cccnc2OC2CC2)nc2c(C(=O)N[C@H]3CC[C@H]3O)cnn12` [I-402] yielded a dissociation constant Kd in test [1] of 0.2 to 1 nM. Also, the inhibition at 10 µM in test [2] and in test [3] was < 50% throughout.
In test [1], `CNc1cc(Nc2cccn([C@H]3CCC[C@@H]3OC)c2=O)nc2c(C(=O)NC3CC3)cnn12` [I-403] had a dissociation constant Kd of 0.2 to 1 nM. Moreover, the inhibition at 10 µM in test [2] and in test [3] was < 50% in each case.
Compound `CNc1cc(Nc2cccn(C[C@H]3CCCCO3)c2=O)nc2c(C(=O)NC3CC3)cnn12` [I-412] registered a dissociation constant (Kd) in test [1] of 0.2 to 1 nM. Besides, the inhibition at 10 µM in test [2] and in test [3] was < 50% each time.
`CNc1cc(Nc2cccn([C@H]3CC[C@@](C)(O)CC3)c2=O)nc2c(C(=O)NC3CC3)cnn12` [I-414]: in test [1], the equilibrium dissociation constant (Kd) lay in the range of 0.2 to 1 nM. For the same compound, the inhibition at 10 µM in test [2] and in test [3] was < 50% in each case.
With `CNc1cc(Nc2cc(F)cn(-c3nn(C)cc3C)c2=O)nc2c(C(=O)N[C@@H]3C[C@@H]3F)cnn12` [I-416], the dissociation constant (Kd) in test [1] was > 10 nM. Moreover, the inhibition at 10 µM in test [2] and in test [3] was < 50% each time.
In the case of `CNc1cc(Nc2cccnc2OC)nc2c(C(=O)NCCC3CCCO3)cnn12` (stereo not drawn) [I-418, 5-((2-methoxypyridin-3-yl)amino)-7-(methylamino)-N-(2-(tetrahydrofuran-2-yl)ethyl)pyrazolo[1,5-a]pyrimidine-3-carboxamide], the equilibrium dissociation constant (Kd) in test [1] was in the range of 1 to 10 nM. Moreover, the inhibition at 10 µM in test [2] and in test [3] was < 50% in each case.
In test [1], `[2H]C([2H])([2H])Oc1ncccc1Nc1cc(NC)n2ncc(C(=O)NCCC3CCCO3)c2n1` (stereo not drawn) [I-419, 5-((2-(methoxy-d3)pyridin-3-yl)amino)-7-(methylamino)-N-(2-(tetrahydrofuran-2-yl)ethyl)pyrazolo[1,5-a]pyrimidine-3-carboxamide] had a Kd of 1 to 10 nM. Besides, the inhibition at 10 µM in test [2] and in test [3] was < 50% in each case.
In test [1], `CNc1cc(Nc2cccnc2OC)nc2c(C(=O)NCCC(C)(C)O)cnn12` [I-420, N-(3-hydroxy-3-methylbutyl)-5-((2-methoxypyridin-3-yl)amino)-7-(methylamino)pyrazolo[1,5-a]pyrimidine-3-carboxamide] had an equilibrium dissociation constant (Kd) of 0.2 to 1 nM. The inhibition at 10 µM in test [2] and in test [3] was < 50% each time.
`[2H]C([2H])([2H])Oc1ncccc1Nc1cc(NC)n2ncc(C(=O)NCCC(C)(C)O)c2n1` [I-421, N-(3-hydroxy-3-methylbutyl)-5-((2-(methoxy-d3)pyridin-3-yl)amino)-7-(methylamino)pyrazolo[1,5-a]pyrimidine-3-carboxamide] gave a dissociation constant (Kd) in test [1] of 0.2 to 1 nM. Besides, the inhibition at 10 µM in test [2] and in test [3] was < 50% in each case.
In test [1], `CNc1cc(Nc2cccnc2OC2CC2)nc2c(C(=O)NCCC(C)(C)O)cnn12` [I-422, 5-((2-cyclopropoxypyridin-3-yl)amino)-N-(3-hydroxy-3-methylbutyl)-7-(methylamino)pyrazolo[1,5-a]pyrimidine-3-carboxamide] displayed a Kd of 1 to 10 nM. In addition, the inhibition at 10 µM in test [2] and in test [3] was < 50% throughout.
As to `CNc1cc(Nc2cccn(C[C@H]3CCCCO3)c2=O)nc2c(C(=O)N[C@@H]3C[C@@H]3F)cnn12` [I-427], the dissociation constant Kd in test [1] was 0.2 to 1 nM. For the same compound, the inhibition at 10 µM in test [2] and in test [3] was < 50% each time.
`CNc1cc(Nc2cccnc2OC)nc2c(C(=O)N[C@@H]3CC[C@@H]3O)cnn12` [I-430] registered a Kd in test [1] of 0.2 to 1 nM. Further, the inhibition at 10 µM in test [2] and in test [3] was < 50% in each case.
Regarding `CNc1cc(Nc2cc(F)cn(-c3nn(C)cc3C)c2=O)nc2c(C(=O)NC3CC3)cnn12` [I-431], in test [1], the Kd is > 10 nM. Further, the inhibition at 10 µM in test [2] and in test [3] was < 50% throughout.
For the compound `CNc1cc(Nc2cccc(C3CCCCO3)n2)nc2c(C(=O)NC3CC3)cnn12` (stereo not drawn) [I-432, N-cyclopropyl-7-(methylamino)-5-((6-(tetrahydro-2H-pyran-2-yl)pyridin-2-yl)amino)pyrazolo[1,5-a]pyrimidine-3-carboxamide], in test [1], the Kd is < 0.2 nM. Moreover, the inhibition at 10 µM in test [2] and in test [3] was < 50% each time.
Regarding `CNc1cc(Nc2cccnc2OC)nc2c(C(=O)NCC(C)CO)cnn12` (stereo not drawn) [I-434, N-(3-hydroxy-2-methylpropyl)-5-((2-methoxypyridin-3-yl)amino)-7-(methylamino)pyrazolo[1,5-a]pyrimidine-3-carboxamide], the Kd in test [1] was < 0.2 nM. Besides, the inhibition at 10 µM in test [2] and in test [3] was < 50% in each case.
Compound `CNc1cc(Nc2cccn([C@H]3CCC[C@@H]3OC)c2=O)nc2c(C(=O)NC3CC3)cnn12` [I-436] showed a Kd in test [1] of 0.2 to 1 nM. Moreover, in test [2], the “Tyk2 JH1% Inhibition @ 10 μM” value was “A (percent inhibition at 10 μM lower than 50)”. In test [3], the “JAK2 JH1% Inhibition @ 10 μM” value is listed as “A (percent inhibition at 10 μM lower than 50)”.
`CNc1cc(Nc2cccn([C@H]3CCC[C@@H]3OC)c2=O)nc2c(C(=O)NC3CC3)cnn12` [I-437] had a Kd in test [1] of 0.2 to 1 nM. In test [2], the “Tyk2 JH1% Inhibition @ 10 μM” value was “A (percent inhibition at 10 μM lower than 50)”. Further, the “JAK2 JH1% Inhibition @ 10 μM” value in test [3] was “A (percent inhibition at 10 μM lower than 50)”.
In turn, `CNc1cc(Nc2cccnc2OC2CC2)nc2c(C(=O)N[C@H]3C[C@@H]3O)cnn12` [I-439, 5-((2-cyclopropoxypyridin-3-yl)amino)-N-((1S,2S)-2-hydroxycyclopropyl)-7-(methylamino)pyrazolo[1,5-a]pyrimidine-3-carboxamide] showed an equilibrium dissociation constant (Kd) in test [1] of 0.2 to 1 nM. Also, the inhibition at 10 µM in test [2] and in test [3] was < 50% throughout.
In the case of `CNc1cc(-c2nn(C(C)C)c3ncccc23)nc2c(C(=O)NC3CC3)cnn12` [I-440], in test [1], the Kd was 0.2 to 1 nM. The inhibition at 10 µM in test [2] and in test [3] was < 50% each time.
`CNc1cc(-c2nn(C3CCOCC3)c3ncccc23)nc2c(C(=O)NC3CC3)cnn12` [I-441]: the Kd in test [1] lay in the range of 0.2 to 1 nM. The inhibition at 10 µM in test [2] and in test [3] was < 50% in each case.
In the case of `CNc1cc(Nc2cccn([C@H]3CCC[C@@H]3OC)c2=O)nc2c(C(=O)N[C@@H]3C[C@@H]3F)cnn12` [I-442], in test [1], the Kd is 0.2 to 1 nM. Besides, the inhibition at 10 µM in test [2] and in test [3] was < 50% throughout.
With `CNc1cc(-c2nn(C3CCOC3)c3ncccc23)nc2c(C(=O)NC3CC3)cnn12` (stereo not drawn) [I-443], in test [1], the dissociation constant Kd is 0.2 to 1 nM. The inhibition at 10 µM in test [2] and in test [3] was < 50% each time.
For `CNc1cc(Nc2cccn(-c3cnn(CC4CCOC4)c3)c2=O)nc2c(C(=O)NC3CC3)cnn12` (stereo not drawn) [I-444], in test [1], the Kd is < 0.2 nM. For the same compound, the inhibition at 10 µM in test [2] and in test [3] was < 50% each time.
In turn, `CNc1cc(Nc2cccnc2OC)nc2c(C(=O)N[C@H]3[C@@H]4COC[C@@H]43)cnn12` [I-445, N-((1R,5S,6r)-3-oxabicyclo[3.1.0]hexan-6-yl)-5-((2-methoxypyridin-3-yl)amino)-7-(methylamino)pyrazolo[1,5-a]pyrimidine-3-carboxamide] yielded an equilibrium dissociation constant (Kd) in test [1] of 0.2 to 1 nM. The inhibition at 10 µM in test [2] and in test [3] was < 50% throughout.

Values taken from patent publication US10508120B2, “TYK2 inhibitors and uses thereof” (Nimbus Lakshmi, Inc., priority 2017, dated 2019).
